Read-outs that look alike come from different tables or passages of the source.
Key:
[1] = target: T1, human CB2 receptors (Homo sapiens, UniProt P34972); experiment: CB2 radioligand binding assay ([3H]CP 55,940 competition), human
T1 construct: expressed in transfected cells; membrane preparation

[2] = target: T2, rat CB2 receptors (Rattus norvegicus, UniProt Q9QZN9); experiment: CB2 radioligand binding assay ([3H]CP 55,940 competition), rat
T2 construct: expressed in transfected cells; membrane preparation
T2 sequence (Q9QZN9 1-360): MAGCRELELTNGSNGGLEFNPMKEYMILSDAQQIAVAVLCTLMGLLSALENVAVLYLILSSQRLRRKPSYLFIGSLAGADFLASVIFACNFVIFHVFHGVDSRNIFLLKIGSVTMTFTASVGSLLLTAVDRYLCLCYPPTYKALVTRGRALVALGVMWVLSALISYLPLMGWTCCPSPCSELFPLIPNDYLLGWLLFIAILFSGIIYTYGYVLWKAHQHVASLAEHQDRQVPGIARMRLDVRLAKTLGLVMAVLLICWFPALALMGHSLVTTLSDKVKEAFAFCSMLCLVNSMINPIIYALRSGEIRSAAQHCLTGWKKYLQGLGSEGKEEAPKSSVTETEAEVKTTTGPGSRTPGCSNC

T1 sequence (P34972 whole entry): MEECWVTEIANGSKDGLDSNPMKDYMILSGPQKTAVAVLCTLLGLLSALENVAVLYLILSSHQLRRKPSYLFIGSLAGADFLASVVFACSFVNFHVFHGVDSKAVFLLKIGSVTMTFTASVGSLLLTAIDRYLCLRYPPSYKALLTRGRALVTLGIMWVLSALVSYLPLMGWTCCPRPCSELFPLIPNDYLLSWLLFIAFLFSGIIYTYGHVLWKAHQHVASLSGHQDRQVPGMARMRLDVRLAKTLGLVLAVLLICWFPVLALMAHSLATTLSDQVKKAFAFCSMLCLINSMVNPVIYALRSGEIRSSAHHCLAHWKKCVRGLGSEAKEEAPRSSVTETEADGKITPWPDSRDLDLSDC

Compound	Ki ([1]; membranes of HEK293 cells stably expressing human CB2, 0.5 nM [3H]CP 55,940, read-out: human CB2 binding (Ki)) [nM]	Ki ([2]; membranes of HEK293 cells stably expressing rat CB2, 0.5 nM [3H]CP 55,940, read-out: rat CB2 binding (Ki)) [nM]	Ki [1] [nM]	Ki [2] [nM]
CCCCn1/c(=N/C(=O)c2cc(C(F)(F)F)ccc2OC[C@H](C)O)sc2ncnc(O)c21 [Example 1, N-[(2Z)-1-butyl-7-hydroxy[1,3]thiazolo[5,4-d]pyrimidin-2(1H)-ylidene]-2-{[(2S)-2-hydroxypropyl]oxy}-5-(trifluoromethyl)benzamide]	233	157	–	–
CCCCn1/c(=N/C(=O)c2cc(C(F)(F)F)ccc2OC[C@H](C)O)sc2nccnc21 [Example 2, N-[(2Z)-3-butyl[1,3]thiazolo[4,5-b]pyrazin-2(3H)-ylidene]-2-{[(2S)-2-hydroxypropyl]oxy}-5-(trifluoromethyl)benzamide]	–	–	2	4.1
CCCCn1/c(=N/C(=O)c2cc(C(F)(F)F)ccc2OC[C@H](C)O)sc2ncncc21 [Example 3, N-[(2Z)-1-butyl[1,3]thiazolo[5,4-d]pyrimidin-2(1H)-ylidene]-2-{[(2S)-2-hydroxypropyl]oxy}-5-(trifluoromethyl)benzamide]	–	–	10	4
CCCCn1/c(=N/C(=O)c2cc(C(F)(F)F)ccc2OC[C@H](C)O)sc2cnn(C)c(=O)c21 [Example 4, N-[(2Z)-3-butyl-5-methyl-4-oxo-4,5-dihydro[1,3]thiazolo[4,5-d]pyridazin-2(3H)-ylidene]-2-{[(2S)-2-hydroxypropyl]oxy}-5-(trifluoromethyl)benzamide]	–	–	36	5

Reference: patent publication US8586596B2, “Compounds as cannabinoid receptor ligands” (AbbVie Inc., priority 2010, dated 2013)
